The values below come from patent US12629415B2, “Vaccine adjuvants” (THE PROVOST, FELLOWS, FOUNDATION SCHOLARS, AND THE OTHER …, priority 2018, dated 2026).

Entries after “also recorded” stand apart in the source; their conditions may differ.

Test [1] deals with bovine PBMCs. The test can be described thus: Bovine IL-1β ELISA on stimulated PBMCs. The format is cell-based, cattle. As to conditions: for IL-1β secretion by bovine PBMCs in the absence of LPS priming: polydA:dT 5, 2 or 1 μg/ml or alum 50 μg/ml. How it is done:
Bovine peripheral blood mononuclear cells were isolated from whole blood samples collected in 9m1 vacutainers containing Heparin anticoagulant. PBMCs were spun and separated using leucosep tubes (Cruinn) and a density gradient histopaque 1077 (Sigma-Aldrich) at a speed of 1200 g for 20 minutes. Red blood cell contamination was eliminated using sterile 0.25% sodium chloride (Baxter) as a lysis buffer. The cells were subsequently washed twice in PBS at a speed of 600 g for 10 minutes to remove impurities.
Cells were counted using a haemocytometer, microscope and trypan blue (Sigma Aldrich) and seeded at appropriate densities in tissue culture plates (Cruinn) containing media. The cells were incubated at 37° C. at 5% CO2 treated within hours of plating to avoid unwanted cell death.
[…] This concentration was selected after testing effects of a range of different LPS concentrations ranging from 1 pg/ml-1 μg/ml. […] Similar to LPS, adjuvant concentrations were selected after testing multiple different doses. After stimulation, the cells were cultured for an additional 24 hours. Supernatants were harvested and stored at −20° C. for further analysis.
Capture antibodies (50 μl/well), diluted in the appropriate buffers, were dispensed into the wells of high binding plates (Greiner Bio-One) and incubated overnight at room temperature or 4° C. For analysis of IL-17, the ELISA plates were pre-coated with capture antibody by the manufacturing before delivery. The wells were washed with PBS/Tween 3 times and the plates were then incubated with 150 μl of blocking buffer for 1 hour at room temperature. The plates were washed again before supernatant (neat or diluted) and recombinant standards were added for 1 hour at room temperature. Following this, the plates were washed and 50 μl of detection antibody was added to the wells for a period of 1 or 2 hours at room temperature. After washing, 50 μl diluted streptavidin-HRP was added to the plate for between 30 minutes and 1 hour. After the final wash, 50 μl of 3,3′-, 5,5′-Tetramethylbenzidine (TMB) substrate was added and the plates were incubated in the dark. The reaction was stopped by addition of 1M sulphuric acid and the absorbance readings were measured at 450 nm using a microtitre plate reader. The cytokine concentrations were calculated using a linear regression standard curve from recombinant cytokines of known concentration. Skanit™ software was used to estimate values.
A general note: An ELISA detects its analyte on a solid surface through an enzyme-linked reagent.

For test [2], the system named is PBMCs or CBMCs. The test can be described thus: HEK-Blue TNFα assay on supernatants. It counts as cell-based, human. As to conditions: CBMCs compared with PBMCs; 4, 8 or 24 hours. The procedure: (§1) Poly(I:C) (5 μg/ml) (Invivogen), Poly(dA:dT) (5 μg/ml) (Sigma-Aldrich), 2′3′ cGAMP (10 μg/ml), 5′ triphosphate double stranded RNA (5′ ppp dsRNA) (2.5 μg/ml) and HSV-60 (2 μg/ml) (all from Invivogen) were transfected into PBMCs or CBMCs using TransIT-X2 (Mirus).
(§2) Measurement of cytokines—HEK Blue TNFα/IFNα/β Assays were performed as per the manufacturer's (Invivogen) instructions using Quanti-Blue Detection Reagent. SEAP levels were determined using a spectrophotometer plate reader at 630 nm. IFNα (3425-1H-6, Mabtech) and IP-10 (DY266, R&D Systems) were detected by sandwich ELISA. IFNα ELISA used pan specific IFNα antibodies, which allows detection of IFNα subtypes 1/13, 2, 4, 5, 6, 7, 8, 10, 14, 16 and 17. BioLegend LEGENDplex™ Human Inflammation Panel (13-plex) was carried out as per manufacturer's (Biolegend) instructions to determine levels of IFNγ, IL-10, IL-12p70 and IL-23. A BD LSR Fortessa cell analyser was used to acquire samples and BioLegend LEGENDplex™ software was used for analysis.

For test [3], the system named is PBMCs or CBMCs. Description: IFNα sandwich ELISA on supernatants. The format is cell-based, human. As to conditions: CBMCs compared with PBMCs; 8 or 24 h. The procedure: as §1, §2
In test [4] the test system is adult PBMCs or neonatal CBMCs. Description: HEK-Blue IFNα/β SEAP assay on supernatants of stimulated mononuclear cells. The format is cell-based, human. The procedure:
Isolation of mononuclear cells and monocytes—Primary PBMCs or CBMCs were isolated from healthy human blood or cord blood. Monocytes were isolated by negative selection using Monocyte Isolation Kit II (Miltenyi). […] Cells were cultured at 37° C., 5% CO2, 95% air in RPMI-1640, with stable 2.5 mM L-glutamine and 0.5 mM sodium pyruvate with 10% FBS (all from Sigma-Aldrich).
as §1, §2

Test [5] deals with Human PBMCs. Description: IL-1β ELISA on stimulated human PBMCs. It counts as cell-based. To be noted: with or without LPS 100 pg/ml priming; 24 hours. The procedure: (§3) Supernatants were collected after 24 hours and IL-1β was detected by ELISA. Human PBMCs were stimulated for 24 hours with polydA:dT (5 μg/ml, 2 μg/ml or 1 μg/ml) or alum (50 μg/ml) alone or with LPS (100 pg/ml) (C & D). Supernatants were collected and IL-1β was detected by ELISA. Bovine PBMCs were cultured with polydA:dT (1 μg/ml) with or without LPS (100 pg/ml) for 16 hours (E). Cell lysates were harvested and pro-IL-1β was detected by western blot. PBMCs were stimulated with media or polydA:dT (1 μg/ml) for 6 hours. Cells were lysed and RNA was harvested and used for analysis by RT-PCR (F). Results are mean+/− SEM for 6 calves tested individually in triplicate. For human analysis, results are mean+/− SEM for 6 humans tested individually in triplicate The PPIA gene was used for normalization of gene expression.

Test [6] relates to bovine PBMCs. The test can be described thus: Western blot of pro-IL-1β in bovine PBMC lysates. The format is cell-based, cattle. How it is done: as §3, with “Bovine PBMCs were cultured with polydA:dT (1 μg/ml) with or without LPS (100 pg/ml) for 16 hours (E).” left out
(In general: A western blot detects proteins with antibodies after separation by electrophoresis.)

On to “poly(deoxyadenylic-thymidylic) acid [Poly(dA:dT)]”, for which the “IL-1β secretion by bovine cells (priming not given)” value in test [1] is “enhanced by polydA:dT; also recorded: enhanced IL-1β secretion from bovine cells; also recorded: enhances IL-1β secretion in a NLRP3 independent manner; also recorded: robust driver of IL-1β secretion and IL-18 expression in cattle”. In test [1] (5 neonatal calves, 24 hours), the “IL-1β secretion by PBMCs from 1 month old calves following LPS priming” value was “PBMCs from all 5 neonates secreted IL-1β” and the “IL-1β secretion by PBMCs from neonatal (1 month old) calves in the absence of LPS priming” value was “can secrete IL-1β in response to polydA:dT without LPS priming; also recorded: secreted processed IL-1β following polydA:dT stimulation”. The “IL-1β secretion by bovine PBMCs primed with LPS” value in test [1] (LPS 100 pg/ml, polydA:dT 5, 2 or 1 μg/ml, 24 hours) is given as “secreted IL-1β when stimulated with polydA:dT at various concentrations”. The “IL-1β secretion by PBMCs from calves at 2 months of age” value in test [1] (absence or presence of LPS, 24 hours) is given as “processed IL-1β was present in supernatants”. For the same substance, the “IL-1β concentrations, presence versus absence of LPS” value in test [1] (bovine PBMCs, 24 hours) is on record as “no significant difference in IL-1β concentrations”. In addition, the “IL-1β secretion by bovine PBMCs in the absence of LPS priming” value in test [1] (24 hours, listed as PolydA:dT) was “capable of driving IL-1β secretion in the absence of priming with LPS”. In test [1] (24 hours, listed as polydA:dT), the “IL-1β secretion by bovine PBMCs in the absence of LPS priming” value is “all calves secreted processed IL-1β”. The TNFα production entry in test [2] was “significantly more TNFα production from neonatal cells than from adult cells”. For the same substance, in test [3], the “IFNα secretion (ELISA)” value is on record as “equivalent or enhanced CNA sensor responses in neonates compared to adults”. In addition, in test [4] (compared with adult blood, summary statement), the “innate immune response in neonatal and/or paediatric blood” value is given as “robust innate immune response in neonatal and/or paediatric blood”. In test [4] (neonatal CBMCs compared with adult PBMCs, stimulation 4, 8 or 24 h), the “type I IFN (IFNα/β) production” value is “no inhibition of type I IFN production in CBMCs when compared to PBMCs”. Besides, the “IL-1β secretion by human PBMCs” value in test [5] is given as “only cells primed with LPS 3 h prior to transfection with polydA:dT secreted processed IL-1β; also recorded: human PBMCS did not secrete processed IL-1β”. Besides, the pro-IL-1β expression result in test [6] (6 hours, data not shown) is on record as “enhances pro-IL-1β expression after 6 hours”. In addition, in test [6] (16 hours, with or without LPS 100 pg/ml), the “pro-IL-1β (western blot)” value is on record as “pro-IL-1β was evidently expressed in cells stimulated with polydA:dT in the absence of LPS”.
